In brackets after ≈: the same amount, converted by molar mass. Read-outs that look alike come from different tables or passages of the source.
Assays:
[1] = tested on: L. donovani intracellular amastigotes in B10R cells; test: UCSD L. donovani infection assay (Assay Conditions D); type: cell-based; conditions: B10R cells
Outline: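 Compounds, either single-point at 10 μM or 10-point 2-fold series (3 technical, 2 biological replicates), were incubated 72 h at 37° C. with B10R host cells co-seeded with day-7 stationary L. donovani promastigotes (20:1). DAPI-stained nuclei imaging yielded intracellular parasite EC50 and host-cell CC50.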

[2] = tested on: host THP-1 macrophages; test: GSK inMac assay, host cell toxicity readout (LD MAC); type: cell-based, human; conditions: for THP-1 Host Cell CC50: host THP-1 cells; for EC50: Homo sapiens, THP-1, cytotoxicity against host THP-1 macrophages
Outline: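 MAC EC50 reflects THP-1 host cell counts, measured within GSK's inMac L. donovani infection assay that also scores intracellular amastigotes and infected-cell percentage.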

[3] = tested on: HepG2 cells; test: HepG2 cytotoxicity; type: cell-based; conditions: Homo sapiens; toxicity against HepG2 cells
Method: Given the literature precedents described above and the apparent narrow tolerance for R^3 substitutions observed in the primary screen compounds, a thorough and methodical assessment was undertaken of tolerated groups at the three points of diversity (R^1/R^2/R^3) for the core. At this stage of the project, all analogues were assessed using a battery of assays performed in-house at GlaxoSmithKline. For antileishmanial activity, GSK's inMac assay was utilized. This assay provides two readouts of compound potency: average number of intracellular amastigotes per infected cell (AMMAC) EC50, percentage of infected cells per well (INFCELL) EC50, as well as a toxicity output derived from the number of host cells (MAC EC50). In addition, compounds were assessed for toxicity against HepG2 cells (HEPG2 EC50). Here, AMMAC EC50 values were focused on for relative potency assessments. […] It should be noted that for all compounds assessed in this project, the measured toxicity against THP-1 macrophages either equaled or exceeded that of HepG2 hepatocytes, therefore the MAC SI is used here as the more conservative estimate of therapeutic index.

[4] = tested on: L. donovani intracellular amastigotes infecting THP-1 macrophages; test: GSK intramacrophage L. donovani assay (LD AMMAC, inMac; Assay Conditions C); type: cell-based; conditions: Leishmania donovani
Outline: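 EC50 values come from counting amastigotes per infected THP-1 macrophage (AMMAC). Parallel read-outs give percentage of infected cells per well (INFCELL) and a macrophage-number toxicity EC50 (MAC).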

[5] = target: human serum albumin (Homo sapiens, UniProt P02768); test: Human serum albumin (HSA) binding, chromatographic; type: in vitro ADME
human serum albumin, sequence (P02768 25-609): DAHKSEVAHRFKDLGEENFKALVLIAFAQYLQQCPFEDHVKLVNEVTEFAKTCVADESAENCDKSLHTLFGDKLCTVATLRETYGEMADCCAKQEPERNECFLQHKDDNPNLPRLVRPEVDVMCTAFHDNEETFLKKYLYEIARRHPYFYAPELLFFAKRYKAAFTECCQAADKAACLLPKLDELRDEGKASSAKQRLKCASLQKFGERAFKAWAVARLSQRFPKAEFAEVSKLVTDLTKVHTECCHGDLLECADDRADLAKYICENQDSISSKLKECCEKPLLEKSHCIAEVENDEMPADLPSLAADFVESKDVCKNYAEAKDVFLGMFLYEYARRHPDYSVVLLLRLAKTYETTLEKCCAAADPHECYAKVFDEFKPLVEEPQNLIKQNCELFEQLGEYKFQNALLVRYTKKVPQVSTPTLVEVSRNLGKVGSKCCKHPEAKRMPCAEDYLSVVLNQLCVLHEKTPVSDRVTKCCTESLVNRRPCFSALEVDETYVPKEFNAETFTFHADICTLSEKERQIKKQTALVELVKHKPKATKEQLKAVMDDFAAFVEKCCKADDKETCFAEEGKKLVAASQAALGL
Method: The percentage of compound bound to human serum albumin was measured using a chromatographic method as described. Briefly, each compound was assayed on an immobilized HSA column and gradient retention times measured, with chromatographic peak detection by UV. Each retention time was then converted to a % HSA bound value using a calibration set of compounds with a known % HSA binding.

[6] = Artificial membrane permeability (AMP); type: in vitro ADME; conditions: PAMPA, pH 7.4
Method: Passive permeability of compounds via rate of permeation through an artificial phospholipid membrane at pH 7.4 was measured in a high-throughput format, in duplicate. A solution of 1.8% phosphatidylcholine in 1% decane was added to a 96-well Millicell filter plate along with 250 μL of 50 mM phosphate buffer, pH 7.4 on the donor side, and 100 μL of the same buffer solution on the receiver side. The assay plate was shaken for 45 minutes before adding test compounds. Test compounds were then added to the filter plate and then incubated at room temperature with shaking for three hours. The donor and receiver solutions were next transferred to a 384-well plate for analysis by LC/MS.

[7] = Property forecast index (PFI = ChromLogD7.4 + aromatic rings); type: physicochemical
Method: At the outset of the project, compound 1 was evaluated against GSK's established criteria for antileishmanial compound advancement (Table 2). Some of these assessments were performed on racemic 1, while chiral separation was also pursued of the 1 racemate to determine the active enantiomer. […] Based on this promising profile, it progressed into medicinal chemistry optimization to better understand structure-activity relationships (SAR) toward improved potency, as well as structure-property relationships (SPR) with an eye toward reducing PFI and plasma protein binding.

[8] = Kinetic aqueous solubility by CLND; type: physicochemical; conditions: kinetic from dmso stock, high-throughput CLND
Method: Solubility of compounds using ChemiLuminescent Nitrogen Detection (CLND) was measured as described. Solubility of compounds using Charged Aerosol Detection (CAD) was measured as described. Solubility of solid compounds in Fasted Simulated Intestinal Fluid (FaSSIF) was measured as described.

[9] = growth inhibition of L. donovani intracellular amastigotes infecting THP-1 macrophages, read-out: LD AMMAC EC50

**Q.** What does the source list for `CCn1cc(N2C(=O)c3[nH]nc(CC(C)C)c3C2c2ccccc2C(F)(F)F)cn1` (centres unmarked) [BUCMD00671]?
**A.** L. donovani amastigotes EC75 (μM, B10R cells) [1]: >5 µM; THP-1 Host Cell CC50 [2]: >10 µM

**Q.** For `CC(C)Cc1n[nH]c2c1C(c1ccc(F)c(F)c1)N(c1cncc(F)c1)C2=O` (centres unmarked) [BUCMD00701], which “L. donovani amastigotes EC75 (μM, B10R cells)” value [1] is on record?
**A.** >5 µM

**Q.** What about the “THP-1 Host Cell CC50” value [2] of the same compound?
**A.** >10 µM

**Q.** With `COc1ccc(N2C(=O)c3[nH]nc(CCC(C)C)c3C2c2ccc(F)cc2)cc1` (centres unmarked) [Compound 9] as the compound, how does the EC50 [3] read?
**A.** 79.4 µM

**Q.** What about the EC50 [4, 9] of the same compound?
**A.** 2.5 µM

**Q.** What about the “HSA Binding” value [5] of the same compound?
**A.** 98.0%

**Q.** And the Papp at 3 h [6]?
**A.** 10 ×10⁻⁶ cm/s

**Q.** What about the PFI [7] of the same compound?
**A.** 9.1

**Q.** What about the solubility [8] of the same compound?
**A.** 15 µM (≈ 5.9 µg/mL)

**Q.** What about the EC50 [2] of the same compound?
**A.** 31.6 µM

**Q.** Which results are given for `COc1ccc(N2C(=O)c3[nH]nc(CC(C)(C)C)c3C2c2ccc(F)cc2)cc1` (centres unmarked) [Compound 10]?
**A.** EC50 [3]: 39.8 µM; EC50 [4, 9]: 2.5 µM; HSA Binding [5]: 97.4%; Papp at 3 h [6]: 17 ×10⁻⁶ cm/s; PFI [7]: 9.0; solubility [8]: 36 µM (≈ 14.2 µg/mL); EC50 [2]: 25.1 µM

**Q.** Which EC50 ([4]; THP-1, read-out: potency (antileishmanial, text to Table 3)) does the source give for `CCCCc1n[nH]c2c1C(c1ccc(F)cc1)N(c1ccc(OC)cc1)C2=O` (centres unmarked) [Compound 11] here?
**A.** ~0.3 µM

**Q.** And the EC50 [4, 9]?
**A.** 0.1 µM

**Q.** What about the PFI [7] of the same compound?
**A.** 8.4

**Q.** And the EC50 [2]?
**A.** 2.5 µM

**Q.** With `C=CCCc1n[nH]c2c1C(c1ccc(F)cc1)N(c1ccc(OC)cc1)C2=O` (centres unmarked) [Compound 12] as the compound, how does the EC50 [3] read?
**A.** 50.1 µM

**Q.** What about the EC50 [4, 9] of the same compound?
**A.** 1.6 µM

**Q.** What about the “HSA Binding” value [5] of the same compound?
**A.** 97.5%

**Q.** And the Papp at 3 h [6]?
**A.** 41 ×10⁻⁶ cm/s

**Q.** What about the PFI [7] of the same compound?
**A.** 8.1

**Q.** And the solubility [8]?
**A.** 135 µM (≈ 51 µg/mL)

**Q.** What about the EC50 [2] of the same compound?
**A.** 3.2 µM

**Q.** For `C=C(C)CCc1n[nH]c2c1C(c1ccc(F)cc1)N(c1ccc(OC)cc1)C2=O` (centres unmarked) [Compound 13], which EC50 [3] is on record?
**A.** 50.1 µM

**Q.** And the EC50 [4, 9]?
**A.** 0.5 µM

**Q.** And the “HSA Binding” value [5]?
**A.** 96.8%

**Q.** What about the Papp at 3 h [6] of the same compound?
**A.** 37 ×10⁻⁶ cm/s

**Q.** And the PFI [7]?
**A.** 8.5

**Q.** And the solubility [8]?
**A.** 52 µM (≈ 20.4 µg/mL)

**Q.** And the EC50 [2]?
**A.** 1.6 µM

**Q.** For `C=C(C)CCCc1n[nH]c2c1C(c1ccc(F)cc1)N(c1ccc(OC)cc1)C2=O` (centres unmarked) [Compound 14], which EC50 [3] is on record?
**A.** 50.1 µM

**Q.** And the EC50 [4, 9]?
**A.** 6.3 µM

**Q.** And the “HSA Binding” value [5]?
**A.** 97.9%

**Q.** And the Papp at 3 h [6]?
**A.** 27 ×10⁻⁶ cm/s

**Q.** And the PFI [7]?
**A.** 8.9

**Q.** And the solubility [8]?
**A.** 17 µM (≈ 6.89 µg/mL)

**Q.** What about the EC50 [2] of the same compound?
**A.** 20 µM

**Q.** Which EC50 [3] does the source give for `COc1ccc(N2C(=O)c3[nH]nc(CCc4ccccc4)c3C2c2ccc(F)cc2)cc1` (centres unmarked) [Compound 15] here?
**A.** 50.1 µM

**Q.** And the EC50 [4, 9]?
**A.** 6.3 µM

**Q.** What about the “HSA Binding” value [5] of the same compound?
**A.** 98.0%

**Q.** What about the Papp at 3 h [6] of the same compound?
**A.** 36 ×10⁻⁶ cm/s

**Q.** And the PFI [7]?
**A.** 9.7

**Q.** And the solubility [8]?
**A.** 6 µM (≈ 2.56 µg/mL)

**Q.** And the EC50 [2]?
**A.** 25.1 µM

**Q.** With `COc1ccc(N2C(=O)c3[nH]nc(-c4ccc5c(c4)CCC5)c3C2c2ccc(F)cc2)cc1` (centres unmarked) [Compound 16] as the compound, how does the EC50 [3] read?
**A.** 25.1 µM

**Q.** What about the EC50 [4, 9] of the same compound?
**A.** 5 µM

**Q.** What about the “HSA Binding” value [5] of the same compound?
**A.** 97.8%

**Q.** What about the Papp at 3 h [6] of the same compound?
**A.** 13 ×10⁻⁶ cm/s

**Q.** What about the PFI [7] of the same compound?
**A.** 10.6

**Q.** And the solubility [8]?
**A.** 17 µM (≈ 7.47 µg/mL)

**Q.** And the EC50 [2]?
**A.** 7.9 µM

**Q.** For `COc1ccc(N2C(=O)c3[nH]nc(-c4ccc(CC(C)C)cc4)c3C2c2ccc(F)cc2)cc1` (centres unmarked) [Compound 17], which EC50 [3] is on record?
**A.** 15.8 µM

**Q.** What about the EC50 [4, 9] of the same compound?
**A.** 4 µM

**Q.** And the “HSA Binding” value [5]?
**A.** 98.0%

**Q.** What about the Papp at 3 h [6] of the same compound?
**A.** 34 ×10⁻⁶ cm/s

**Q.** What about the PFI [7] of the same compound?
**A.** 11.4

**Q.** What about the solubility [8] of the same compound?
**A.** < 1 µM

**Q.** What about the EC50 [2] of the same compound?
**A.** 7.9 µM

**Q.** For `CC(C)Cc1n[nH]c2c1C(c1ccc(F)cc1)N(c1ccc(O)cc1)C2=O` (centres unmarked) [Compound 18], which EC50 [3] is on record?
**A.** > 100 µM

**Q.** What about the EC50 [4, 9] of the same compound?
**A.** 5 µM

**Q.** What about the “HSA Binding” value [5] of the same compound?
**A.** 95.6%

**Q.** What about the Papp at 3 h [6] of the same compound?
**A.** 28.5 ×10⁻⁶ cm/s

**Q.** And the PFI [7]?
**A.** 7.1

**Q.** And the solubility ([8]; aqueous (not further specified))?
**A.** ≥ 430 µM

**Q.** And the EC50 [2]?
**A.** 39.8 µM
